Assay results published in patent US8455475B2 (Gruenenthal GmbH, priority 2009, dated 2013).

Target: T1, rat B1R (bradykinin receptor 1) (Rattus norvegicus, UniProt P97583)
T1 construct: expressed in transfected cells; host or cells: CHO K1 cells
T1 sequence (P97583 1-337): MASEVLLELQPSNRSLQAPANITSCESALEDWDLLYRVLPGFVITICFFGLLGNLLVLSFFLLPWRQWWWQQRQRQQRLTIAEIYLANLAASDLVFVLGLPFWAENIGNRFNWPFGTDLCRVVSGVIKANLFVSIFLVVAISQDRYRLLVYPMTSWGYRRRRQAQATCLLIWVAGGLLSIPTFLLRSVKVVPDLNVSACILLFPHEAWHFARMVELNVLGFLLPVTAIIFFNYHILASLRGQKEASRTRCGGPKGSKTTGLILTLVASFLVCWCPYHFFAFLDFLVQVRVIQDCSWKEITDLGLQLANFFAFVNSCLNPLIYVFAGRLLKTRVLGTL
Assay: FLIPR Ca2+ assay (Fluo-4) on CHO K1 cells stably transfected with the B1R gene of the rat (rB1R cells): % inhibition at 10 μM / IC50, agonist Des-Arg9-bradykinin
Type: cell-based
Conditions: CHO-K1, rat B1R
In short: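 Loading with Fluo-4 occurs for 60 min at 37 °C, or alternatively in buffer A, before FLIPR measurement. Compounds are applied, incubated 10–20 min, and then the EC80 agonist is added. Antagonism appears as reduced peak Ca2+ signal relative to maximal inhibition.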

SMILES | inhibition at 10 µM [%]
Cc1cccc(Cl)c1C(=O)NC1CCc2ccc(C(=O)N3CCC4(CCN(Cc5cnc(N(C)C)nc5)CC4)C3)cc21 (centres unmarked) [IND_CC-763, 2-Chloro-N-[6-[8-[(2-dimethylamino-pyrimidin-5-yl)-methyl]-2,8-diazaspiro-[4.5]decane-2-carbonyl]-2,3-dihydro-1H-inden-1-yl]-6-methyl-benzamide] | 74
Cc1cccc(Cl)c1C(=O)NC1CCc2ccc(C(=O)N3CCC4(CCN(Cc5ccc6ncccc6c5)CC4)C3)cc21 (centres unmarked) [IND_CC-764, 2-Chloro-6-methyl-N-[6-[8-(quinolin-6-yl-methyl)-2,8-diazaspiro[4.5]decane-2-carbonyl]-2,3-dihydro-1H-inden-1-yl]-benzamide] | 71
Cc1cccc(Cl)c1C(=O)NC1CCc2ccc(C(=O)N3CCC4(CCN(Cc5ccc6nccnc6c5)CC4)C3)cc21 (centres unmarked) [IND_CC-765, 2-Chloro-6-methyl-N-[6-[8-(quinoxalin-6-yl-methyl)-2,8-diazaspiro[4.5]-decane-2-carbonyl]-2,3-dihydro-1H-inden-1-yl]-benzamide] | 105
Cc1cccc(Cl)c1C(=O)NC1CCc2ccc(C(=O)N3CCC4(CCN(Cc5ccc6c(c5)nnn6C)CC4)C3)cc21 (centres unmarked) [IND_CC-766, 2-Chloro-6-methyl-N-[6-[8-[(1-methyl-1H-benzotriazol-5-yl)-methyl]-2,8-diazaspiro[4.5]decane-2-carbonyl]-2,3-dihydro-1H-inden-1-yl]-benzamide] | 93
Cc1cccc(Cl)c1C(=O)NC1CCc2ccc(C(=O)N3CCC4(CCN(CC(C)C)CC4)C3)cc21 (centres unmarked) [IND_CC-767, 2-Chloro-6-methyl-N-[6-[8-(2-methyl-propyl)-2,8-diazaspiro[4.5]decane-2-carbonyl]-2,3-dihydro-1H-inden-1-yl]-benzamide] | 73
CCC(CC)CN1CCC2(CC1)CCN(C(=O)c1ccc3c(c1)C(NC(=O)c1c(C)cccc1Cl)CC3)C2 (centres unmarked) [IND_CC-768, 2-Chloro-N-[6-[8-(2-ethyl-butyl)-2,8-diazaspiro[4.5]decane-2-carbonyl]-2,3-dihydro-1H-inden-1-yl]-6-methyl-benzamide] | 79
Cc1cccc(Cl)c1C(=O)NC1CCc2ccc(C(=O)N3CCC4(CCN(CCc5ccccc5)CC4)C3)cc21 (centres unmarked) [IND_CC-769, 2-Chloro-6-methyl-N-[6-(8-phenethyl-2,8-diazaspiro[4.5]decane-2-carbonyl)-2,3-dihydro-1H-inden-1-yl]-benzamide] | 91
Cc1cccc(Cl)c1C(=O)NC1CCc2ccc(C(=O)N3CCC4(CCN(CCCc5cccc(F)c5)CC4)C3)cc21 (centres unmarked) [IND_CC-770, 2-Chloro-N-[6-[8-[3-(3-fluorophenyl)-propyl]-2,8-diazaspiro[4.5]decane-2-carbonyl]-2,3-dihydro-1H-inden-1-yl]-6-methyl-benzamide] | 109
Cc1cccc(Cl)c1C(=O)NC1CCc2ccc(C(=O)N3CCC4(CCN(CCCc5ccc(F)cc5)CC4)C3)cc21 (centres unmarked) [IND_CC-771, 2-Chloro-N-[6-[8-[3-(4-fluorophenyl)-propyl]-2,8-diazaspiro[4.5]decane-2-carbonyl]-2,3-dihydro-1H-inden-1-yl]-6-methyl-benzamide] | 108
CCn1cc(CN2CCC3(CC2)CCN(C(=O)c2ccc4c(c2)C(NC(=O)c2c(F)cccc2Cl)CC4)C3)c(C)n1 (centres unmarked) [IND_CC-772, 2-Chloro-N-[6-[8-[(1-ethyl-3-methyl-1H-pyrazol-4-yl)-methyl]-2,8-diazaspiro-[4.5]decane-2-carbonyl]-2,3-dihydro-1H-inden-1-yl]-6-fluoro-benzamide] | 52
CN(C)c1ncc(CN2CCC3(CC2)CCN(C(=O)c2ccc4c(c2)C(NC(=O)c2c(F)cccc2Cl)CC4)C3)cn1 (centres unmarked) [IND_CC-773, 2-Chloro-N-[6-[8-[(2-dimethylamino-pyrimidin-5-yl)-methyl]-2,8-diazaspiro-[4.5]decane-2-carbonyl]-2,3-dihydro-1H-inden-1-yl]-6-fluoro-benzamide] | 80
